Measured values taken from publication PMC9569971, “New Oxazolo[5,4-d]pyrimidines as Potential Anticancer Agents: Their Design, Synthesis, and In Vitro Biological Activity Research” (International Journal of Molecular Sciences, 2022).

Tested on: HT29 cells
Assay: Migration (scratch) assay
Assay type: cell-based, human
Details: control T 155558.2, control T0 544366.45
Method: The scratch test was performed to verify that the tested compound 3g could inhibit the formation of metastases by the HT29 cell line. The seeded HT29 cells were incubated until they formed a monolayer over the entire surface of the well. Then, a scratch test was performed by making a scratch in the monolayer and measuring its width—that is, To, amounting to 544,366.45 μm^2. Freshly prepared compounds were added to the HT29 cells at concentrations of 10, 25, 50, and 100 μM. Breeding plates were incubated for 24 h. The next day, scratch width was measured again using the ImageJ open-source platform. […] The lowest cellular overgrowth of HT29 culture occurred at the concentration of 100 μM for the compound. Compound 3g inhibited the migration of HT29 cells more strongly than the reference drugs, showing that it has the potential to inhibit metastasis. The width of the scratch after 24 h when no compound was applied to the cells was used as a control (T = 155,558.2 μm^2).
All cell lines were grown in 5% CO2 at 95% humidity and 37 °C, with both morphology and confluence assessed twice per week. When the confluence was greater than 70%, adherent cell lines were detached from the bottle surface with a TrypLE solution and then used in assays or reduced. The cells were collected into centrifuge tubes and centrifuged at 1000× g for 5 min at room temperature. The supernatant was removed to dry. The cell pellets were then resuspended in an appropriate medium. The cells were counted using a Bürker chamber and resuspended in 96-well plates to a cell density of 10,000 cells per well for MTT assay. For the rhodamine accumulation test and the detection of apoptosis assay, cells were seeded at a density of 30,000 per well. In the migration assay, cells were seeded at a density of 20,000 per well, and monolayer formation was awaited.
After seeding, HT29 cells were incubated until they formed a monolayer over the entire surface of the well. A scratch was made on the surface overgrown with cells, and then photomicrographs of the scratch were taken using the EVOS FL microscope. The freshly prepared compound 3g and the reference drugs were added at concentrations of 10, 25, 50, and 100 µM. Then, they were incubated for 24 h, and micrographs were performed at that time using the EVOS FL microscope. The scratch width was measured using the ImageJ open-source platform. The measurement of scratch width was also performed after 24 h without adding compounds.

Cc1noc(N)c1-c1nc2c(NCCCN(C)C)ncnc2o1 [Compound 3g, 2-(5-Amino-3-methylisoxazol-4-yl)-7-N-[3-(N,N-dimethylamino)propyl]aminooxazolo[5,4-d]pyrimidine]
scratch width after 24 h, mean (10 μM): 180844 μm^2
scratch width after 24 h, mean (25 μM): 218581.6 μm^2
scratch width after 24 h, mean (50 μM): 245687.8 μm^2
scratch width after 24 h, mean (100 μM): 314566.8 μm^2
